Format in all cases: cell-based, Human
What all share (conditions): concentration 10-M [sic], 2 days after addition

In experiment [1] the test system is Breast Cancer cells (HS 578T). The experiment is described as follows: NCI-60 one-dose screen, Breast Cancer cells (HS 578T). Here is the method: (§1) Anticancer activities of the exemplary isatin derivatives were tested by the NIH National Cancer Institutes (NCI), with results summarized in FIGS. 2A-2B. The anticancer activity was tested by NCI, division of cancer treatment and diagnosis, according to the NCI-60 Human Tumor Cell Lines Screen, one-dose screen (https://dtp.cancer.gov/discovery_development/nci-60/methodology.htm). This screening allows for qualified synthesized chemicals to be subjected to an anticancer test against 60 different cancer cell lines. Briefly, exemplary T1 or T2 was dissolved in DMSO:Glycerol, 9:1, at 4 mmol and kept frozen prior to use. For inoculation, a 96 well microtiter was used for the study of different cell lines. Based on the doubling time for each cell line, the well density varied. The plates were incubated at 37° C., 5% CO2, 95% air and 100% relative humidity for 1 day. The exemplary T1 or T2 or a control were added to the plates at a concentration of 10-M. After 2 more days, the plates were fixed and stained to identify growth inhibition relative to cells without drug treatment. Anti-proliferative activity was determined based on careful analysis of historical DTP screening data. Cell death and net growth inhibition were determined based on a time zero control. A value of 100 indicates no growth inhibition. A value of 40 indicates 60% growth inhibition. […]

Experiment [2] concerns Ovarian Cancer cells (IGROV1). The experiment is described as follows: NCI-60 one-dose screen, Ovarian Cancer cells (IGROV1). Here is the method: as §1
Experiment [3] concerns Colon Cancer cells (KM12). The experiment is described as follows: NCI-60 one-dose screen, Colon Cancer cells (KM12). The protocol: as §1
The test system of experiment [4] is Non-Small Cell Lung Cancer cells (EKVX). The experiment can be described thus: NCI-60 one-dose screen, Non-Small Cell Lung Cancer cells (EKVX). The protocol: as §1
Experiment [5] relates to Renal Cancer cells (CAKI-1). The experiment is described as follows: NCI-60 one-dose screen, Renal Cancer cells (CAKI-1). Here is the method: as §1
The subject of experiment [6] is Renal Cancer cells (UO-31). The experiment is described as follows: NCI-60 one-dose screen, Renal Cancer cells (UO-31). Here is the method: as §1

Regarding `O=C1Nc2ccccc2C1=NN=Cc1c[nH]c2ccccc12` [T1], the “reduction compared to control (anticancer activity)” value in experiment [1] was ~85%; in experiment [2], ~65%; in experiment [3], ~72%; in experiment [4], ~79%; in experiment [5], ~83%; in experiment [6], ~74%.

`O=C1Nc2ccc(Cl)cc2C1=NN=Cc1c[nH]c2ccccc12` [T2]: the “reduction compared to control (anticancer activity)” value in experiment [1] is listed as ~78%; in experiment [4] it was ~77%; in experiment [5] it was ~71%; in experiment [6], ~59%.

(Values after US20210221794A1, “ISATIN DERIVATIVES” (KING SAUD UNIVERSITY, priority 2020, published 2021).)
